Measurements reported in patent publication US9994915B2, “miR-211 expression and related pathways in human melanoma” (Sanford-Burnham Medical Research Institute, priority 2010, dated 2018).

Key:
Type in all cases: cell-based, human
[1] = system: A375 cells; test: cell counts in hypoxic chamber (2% O2), A375/211; conditions: A375/211 cells, hypoxic chamber 2% O2 (parental A375 about 68%)
Description: To test under actual hypoxic conditions, both cell lines were placed into a hypoxic chamber containing 2% O2 prior to determination of cell counts. […] As in the DFO-simulated hypoxic condition assay, the presence of miR-211 caused the effect to be greatly exacerbated, reducing survival to about 29%.

[2] = system: IGFBP5 3′UTR; test: luciferase reporter target inhibition assay with IGFBP5 3′UTR; conditions: A375/211 cells
Description: A putative miR-211 binding site with the sequence 5′-aaagggaa-3′ (SEQ ID NO:40) is present in the 3′-UTR of the IGFBP5 mRNA (SEQ ID NO:41; FIG. 26). In order to investigate the specificity and mechanism of miR-211 inhibition of IGFBP5, three luciferase reporter constructs were created, each having a different 3′-UTR on the luciferase gene. The constructs were as follows: (i) luciferase coding sequence with the luciferase 3′-UTR (“pcDNA6/Luc/NP3”), (ii) luciferase coding sequence with the IGFBP5 3′-UTR (“pcDNA6/Luc/NP3/IGFBP5 3′UTR”), and (iii) luciferase coding sequence with the IGFBP5 3′-UTR having a mutation in the miR-211 binding site (“pcDNA6/Luc/NP3/IGFBP5 3′UTR Mut”). The mutant miR-211 binding site is represented by SEQ ID NO:42 (5′-taagccta-3′). Vectors encoding these constructs were transfected into native A375 cells, A375 cells containing the miR-211-expressing vector (“A375/211”), or A375 cells having an empty vector (“A375/VO”). […] In the miR-211-expressing A375 cells, luciferase expression was unaffected for the constructs containing the native luciferase 3′UTR and the IGFBP5 3′UTR in which the miR-211 binding site had been altered. However, the luciferase activity was reduced by nearly 40% when the native IGFBP5 3′UTR was expressed.

[3] = system: WM1552C melanoma cells; test: Matrigel invasion chamber assay; conditions: 48 hours
Method: BD BioCoat™ growth factor reduced insert plates (Matrigel™ Invasion Chamber 12 well plates) were prepared by rehydrating the BD Matrigel™ matrix coating in the inserts with 0.5 mls of serum-free Complete Tu media for two hours at 37° C. The rehydration solution was carefully removed from the inserts, 0.5 ml Complete Tu (2% FBS) was added to the lower wells of the plate, and 2.5×10^4 cells suspended in 0.5 ml of serum-free Complete Tu media were added to each insert well. WM1552C/211(800) cells were additionally transfected with the Anti-miR miRNA Inhibiter for hsa-miR-211 as well as Negative Control #1 (Ambion) (miR-Scramble) at a concentration of 100 nM using siPORT NeoFX (Ambion). […] The number of migrating tumor cells was counted from each of five images per cell line (including miR Inhibiter transfected cells) in the central area of the filter. […] Data are expressed as the percent invasion through the membrane relative to the migration of WM1552C (Wild Type) through the membrane.
The impact of miR-211 expression on the invasive properties of WM1552C. WM1552C/211(400) and WM1552C/211(800) cells, along with WM1552C/VO, WM1552C/KC KO, and untransfected WM1552C was determined. […]
2.5×10^5 cells WM1552C/211(800) cells were seeded into wells of a 6-well plate. […] After 48 hours, the cells were harvested by trypsinization and counted using an automated cell counter (Cellometer®, Nexcelom Bioscience). […]

[4] = system: hypoxia-inducible factor 1 alpha (HIF-1α); test: level of HIF-1α in miR-211-expressing cells
Method: Deep-sequencing (RNA-seq) and proteomics (mass spectrometry) data from two melanoma cell lines A375 and W[…], each expressing miR-211 or the empty vector, were generated. […] Energy consumption was investigated in miR-211-expressing cells. Using the Seahorse XF96 Analyzer, it was determined that miR-211-expressing melanoma cells (A375) consumed nearly double the amount of oxygen as control cells expressing the empty vector (FIG. 35). […] Finally, we measured the level of hypoxia-inducible factor 1 alpha (HIF-1α) in miR-211-expressing cells. HIF-1α expression was reduced by miR-211 expression which is an indication of cellular respiration changes (FIG. 37).

Substance: miR-211: pre-miR-211 sequence stably expressed from plasmid pcDNA4/miR-211 in melanoma cells; mature sequence UUCCCUUUGUCAUCCUUCGCCU (SEQ ID NO: 15) (listed as Homo sapiens)
- survival vs normoxic condition cells [1]: about 29%
- reduction of luciferase activity ([2]; native IGFBP5 3′UTR construct): ~40%
- luciferase expression ([2]; native luciferase 3′UTR or IGFBP5 3′UTR with altered miR-211 binding site): unaffected
- migrated less than WM1552C (invasion) ([3]; WM1552C/211(400)): ~40%
- migrated less than WM1552C (invasion) ([3]; WM1552C/211(800)): ~60%
- HIF-1α expression [4]: reduced
